# Assay results: US20240409532A1, “BIPHENYL SULFONAMIDES AS DUAL ANGIOTENSIN ENDOTHELIN RECEPTOR ANTAGONISTS” (Chongqing Hongyuantang Medicine Co., Ltd., priority 2023, published 2024)
# Target: T1, ETA receptor (Rattus norvegicus, UniProt P26684)
# T1 construct: evaluated in isolated rat aortic ring; from tissue; host or cells: isolated rat aortic ring
# T1 sequence (P26684 21-426): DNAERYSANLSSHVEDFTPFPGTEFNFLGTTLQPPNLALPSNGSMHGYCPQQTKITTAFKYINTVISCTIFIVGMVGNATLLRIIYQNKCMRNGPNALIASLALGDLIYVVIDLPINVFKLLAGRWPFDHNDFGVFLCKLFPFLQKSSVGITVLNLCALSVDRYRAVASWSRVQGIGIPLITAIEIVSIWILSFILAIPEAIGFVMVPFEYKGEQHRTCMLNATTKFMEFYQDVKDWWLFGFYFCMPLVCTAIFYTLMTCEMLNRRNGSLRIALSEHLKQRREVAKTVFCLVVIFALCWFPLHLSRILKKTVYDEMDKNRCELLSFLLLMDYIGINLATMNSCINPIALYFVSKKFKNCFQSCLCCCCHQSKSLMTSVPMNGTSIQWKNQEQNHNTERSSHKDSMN
# Assay: In vitro evaluation of inhibitory activity against ETA receptor (isolated rat aortic ring, literature procedure)
# Format: biochemical
# Details: telmisartan as control
# Experimental: The biological activity of compounds was evaluated in isolated rat aortic ring and in systemic arterial pressure (SAP) of anesthetized rat experiments using the literature procedures in Chinese Pharmacological Bulletin 2008, 24 (11): 1422-1426.
# Telmisartan, as an AT1 receptor antagonist approved for marketing by the US FDA in 1998, was used as a control to evaluate the inhibitory activity of AT1 and ETA receptors.
row,SMILES,Ki [nM]
1,CCOCc1cc(Cn2c(C)nc3c(C)cc(-c4nc5ccccc5n4C)cc32)ccc1-c1ccccc1S(=O)(=O)Nc1noc(C)c1C [Compound 1-4],> 102
2,"CCOCc1cc(Cn2c(CC)nc3c(C)cc(-c4nc5ccccc5n4C)cc32)ccc1-c1ccccc1S(=O)(=O)Nc1noc(C)c1C [Compound 1-7, N-(4,5-dimethylisoxazol-3-yl)-2′-(ethoxymethyl)-4′-((2′-ethyl-1,7′-dimethyl-1H,3′H-[2,5′-bibenzo[d]imidazol]-3′-yl)methyl)-[1,1′-biphenyl]-2-sulfonamide]",13.2 ± 3.3
3,"CCCc1nc2c(C)cc(-c3nc4ccccc4n3C)cc2n1Cc1ccc(-c2ccccc2S(=O)(=O)Nc2noc(C)c2C)c(COCC)c1 [Compound 1-10, 4′-((1,7′-dimethyl-2′-propyl-1H,3′H-[2,5′-bibenzo[d]imidazol]-3′-yl)methyl)-N-(4,5-dimethylisoxazol-3-yl)-2′-(ethoxymethyl)-[1,1′-biphenyl]-2-sulfonamide]",6.8 ± 1.8
4,"CCCCc1nc2c(C)cc(-c3nc4ccccc4n3C)cc2n1Cc1ccc(-c2ccccc2S(=O)(=O)Nc2noc(C)c2C)c(COCC)c1 [Compound 1-13, 4′-((2′-butyl-1,7′-dimethyl-1H,3′H-[2,5′-bibenzo[d]imidazol]-3′-yl)methyl)-N-(4,5-dimethylisoxazol-3-yl)-2′-(ethoxymethyl)-[1,1′-biphenyl]-2-sulfonamide]",7.2 ± 2.1
5,"CCCc1nc2c(C)cc(-c3nc4ccccc4n3C)cc2n1Cc1ccc(-c2ccccc2S(=O)(=O)Nc2onc(C)c2C)c(COCC)c1 [Compound 2-3, 4′-((1,7′-dimethyl-2′-propyl-1H,3′H-[2,5′-bibenzo[d]imidazol]-3′-yl)methyl)-N-(3,4-dimethylisoxazol-5-yl)-2′-(ethoxymethyl)-[1,1′-biphenyl]-2-sulfonamide]",8.8 ± 2.2
6,"CCCCc1nc2c(C)cc(-c3nc4ccccc4n3C)cc2n1Cc1ccc(-c2ccccc2S(=O)(=O)Nc2onc(C)c2C)c(COCC)c1 [Compound 2-5, 4′-((2′-butyl-1,7′-dimethyl-1H,3′H-[2,5′-bibenzo[d]imidazol]-3′-yl)methyl)-N-(3,4-dimethylisoxazol-5-yl)-2′-(ethoxymethyl)-[1,1′-biphenyl]-2-sulfonamide]",9.2 ± 2.3
7,"CCCc1nc2c(C)cc(-c3nc4ccccc4n3C)cc2n1Cc1ccc(-c2ccccc2C(=O)O)cc1 [Telmisartan, reference compound]",> 103
